Measured values published in patent US10786505B2, “Administration of NEDD8-activating enzyme inhibitor and chemotherapeutic agents” (Millennium Pharmaceuticals, Inc., priority 2013, dated 2020).

Legend:
Assay type in all cases: in vivo, mice
NCI-H82 xenograft model = test: Combination of cisplatin and MLN4924 in NCI-H82 xenograft model
Protocol: NCI-H69 or NCI-H82 small cell lung tumor fragments (30- to 40-mg) are implanted into the subcutaneous space in the area of the right flank of NCr nu/nu mice (7-10 weeks, Charles River Laboratories, Inc, Frederick Md. or Wilmington, Mass.) using a 12-gauge trocar.
(§1) Tumors are measured twice weekly using a vernier caliper. Tumor volumes are calculated using standard procedures (0.5×(length×width^2)). […] Tumor size and body weight are measured approximately twice a week for the duration of the study. Mice are euthanized when their tumor volume reached 10% of their body weight, or when the average tumor volume of a treatment or control group reached approximately 2000 mm^3. Tumor growth continued to be monitored after the dosing period in some studies. Average tumor volume is reported as a function of time for selected groups of selected studies in Figures A, B, and C.
(§2) Measurements from day 0 to 18, 21 or 22 are analyzed as specified in Tables 4-9. All tumor volumes have a value of 1 added to them before log10 transformation. For each animal, the log tumor volume at day 0 is subtracted from the log tumor volume on the subsequent days. This difference vs. time is used to calculate an area under the curve (AUC) for each animal using the trapezoid rule. […] The synergy score for the combination of agents A and B is defined as 100*(mean(AUCAB)−mean(AUCA)−mean(AUCB)+mean(AUCctl))/mean(AUCctl): where AUCAB, AUCA, AUCB, and AUCctl are the AUC values for animals in the combination group, the A group, the B group, and the control group, respectively. The standard error of the synergy score is computed based on the variation in the AUC values among the animals. […] If the P-value is above 0.05, then the combination is considered to be additive. If the P-value is below 0.05, and the synergy score is less than zero, then the combination is considered to be synergistic. […] Otherwise, the combination is classified as antagonistic.

PHTX02B xenograft model = test: Combination of gemcitabine and MLN4924 in PHTX02B xenograft model
Protocol: (§3) The PHTX02B breast xenograft model was established from a patient-derived tumor collected during surgery from a person with invasive ductal carcinoma classified as triple negative breast cancer (ER-/PR-/Her2-) by IHC. […] Gemcitabine (Gemzar, Henry Schein, Inc, Pittsburgh Pa., and Myoderm Medical, Norristown, Pa.) is formulated in 0.9% saline and administered by intraperitoneal injection (IP) q3Dx4 (every 3 days for a total of 4 doses) at 2.5 mg/kg or 10 mg/kg, or by IV injection twice weekly (BIW) at 20 mg/kg IVU. […] Tumors are measured twice weekly using a vernier caliper. […] Tumor size and body weight are measured approximately twice a week for the duration of the study. […] Tumor growth continued to be monitored after the dosing period in some studies. […] Average tumor volume is reported as a function of time for selected groups of selected studies in Figures A, B, and C. Measurements from day 0 to 18, 21 or 22 are analyzed as specified in Tables 4-9. […] For each animal, the log tumor volume at day 0 is subtracted from the log tumor volume on the subsequent days. This difference vs. time is used to calculate an area under the curve (AUC) for each animal using the trapezoid rule. In instances when an animal in a treatment group is removed early from the study, the last observed tumor value is carried forward through all subsequent time points. […] The standard error of the synergy score is computed based on the variation in the AUC values among the animals. […] Otherwise, the combination is classified as antagonistic.

[1] = test system: PHTX249Pa xenograft model; test: Combination of gemcitabine and MLN4924 in PHTX249Pa xenograft model
Protocol: as §3, with “PHTX249 Pa pancreatic” for “PHTX02B breast”, “pancreatic adenocarcinoma.” for “invasive ductal carcinoma classified as triple negative breast cancer (ER-/PR-/Her2-) by IHC.”

[2] = test system: NCI-H1650 xenograft model; test: Combination of docetaxel and MLN4924 in NCI-H1650 xenograft model
From the text: NCI-H1650 (2×10^6) tumor cells in RPMI-1640 media are mixed with an equal volume of Matrigel (BD Biosciences) and aseptically injected into the subcutaneous space in the right dorsal flank of Balb/c Nude mice (age 4-6 weeks, Shanghai SINO-British SIPPR/BK Lab Animal Ltd.) using a 25-gauge needle.
(§4) Docetaxel (Henry Schein, Inc., Pittsburgh Pa., Qilu Pharmaceutical Co., Ltd., Jinan, Shandong, China, and Sanofi-Aventis) is formulated in 0.9% saline and administered by intravenous injection (IV) once weekly (QW) at 5 mg/kg or 10 mg/kg.
as §1, §2

LU1143 xenograft model = test: Combination of docetaxel or carboplatin and MLN4924 in LU1143 xenograft model; details: 45 mg/kg MLN4924 BID SC
Protocol: as §4
(§5) Carboplatin (CARBOplatin Injection, Hospira, Inc., Qilu Pharmaceutical Co., Ltd. Jinan, Shandong, China, and Teva Gry-Pharma GmbH, Ulm, Germany) is formulated in 0.9% saline and administered by IP injection once weekly (QW) at 50 mg/kg. The once weekly schedule is also described as every 7 days (Q7D).
as §1
Measurements from day 0 to 18, 21 or 22 are analyzed as specified in Tables 4-9. All tumor volumes have a value of 1 added to them before log10 transformation. For each animal, the log tumor volume at day 0 is subtracted from the log tumor volume on the subsequent days. This difference vs. time is used to calculate an area under the curve (AUC) for each animal using the trapezoid rule. […] The synergy score for the combination of agents A and B is defined as 100*(mean(AUCAB)−mean(AUCA)−mean(AUCB)+mean(AUCctl))/mean(AUCctl): where AUCAB, AUCA, AUCB, and AUCctl are the AUC values for animals in the combination group, the A group, the B group, and the control group, respectively. The standard error of the synergy score is computed based on the variation in the AUC values among the animals. […] If the P-value is above 0.05, then the combination is considered to be additive. […]

LXFE409 xenograft model = test: Combination of docetaxel or carboplatin and MLN4924 in LXFE409 xenograft model; details: for average tumor volume day 21: LXFE409 xenograft
Protocol: LXFE409 squamous non small cell lung cancer tumor fragments are implanted into the subcutaneous space in the flank of female NMRI nu/nu mice (5-7 weeks, Janvier Labs, Saint Berthevin, France).
as §4, §5, §1, §2

[3] = 120 mg/kg MLN4924 Q2Dx3/week SC

NS(=O)(=O)OC[C@@H]1C[C@@H](n2ccc3c(N[C@H]4CCc5ccccc54)ncnc32)C[C@@H]1O [MLN4924, ((1S,2S,4R)-4-(4-((1S)-2,3-dihydro-1H-inden-1-ylamino)-7H-pyrrolo[2,3-d]-pyrimidin-7-yl)-2-hydroxycyclopentyl)methyl sulfamate]
average tumor volume day 22 (NCI-H82 xenograft model; 60 mg/kg MLN4924 BID Q2Dx3/week SC): 861.9 mm^3 | average tumor volume day 22 (NCI-H82 xenograft model; 60 mg/kg MLN4924 BID Q3Dx2/week SC): 783.3 mm^3 | average tumor volume day 22 (PHTX02B xenograft model; 30 mg/kg MLN4924 BID SC): 647.4 mm^3 | tumor growth during the treatment period (in words) (PHTX02B xenograft model; FIG. 2, MLN4924 SC 30 mg/kg BID, gemcitabine 10 mg/kg IP q3dx4, single agents or their combination): inhibited tumor growth compared to the control vehicle group | average tumor volume day 18 ([1]; PHTX249Pa xenograft, 90 mg/kg MLN4924 BID BIW SC): 1748.9 mm^3 | tumor growth compared to the control vehicle group (in words) ([1]; PHTX249 Pa xenograft, gemcitabine 20 mg/kg IV BIW, MLN4924 90 mg/kg SC BID BIW, single agents or their combination): did not show growth inhibition compared to the control vehicle group | average tumor volume day 21 ([2]; 90 mg/kg MLN4924 Q2Dx3/week SC): 776.8 mm^3 | average tumor volume day 21 [2, 3]: 774.2 mm^3 | average tumor volume day 21 (LU1143 xenograft model): 801.2 mm^3 | tumor course after the treatment period, to end of study on day 95 (in words) (LXFE409 xenograft model; LXFE409 sqNSCLC model, FIG. 4, MLN4924 120 mg/kg SC Q2Dx3/week for 3 weeks, docetaxel 10 mg/kg IV QW for 3 weeks, single agents or combination): regrew after the treatment period ended | average tumor volume day 21 (LXFE409 xenograft model; 90 mg/kg MLN4924 Q2Dx3/week SC): 707.5 mm^3 | average tumor volume day 21 (LXFE409 xenograft model; [3]): 167.1 mm^3
